Source: the NIST ThermoML archive (doi:10.1016/j.jct.2015.08.028)
± gives the expanded uncertainty stated by the source.

Key:
[1] = Crystal; DTA
[2] = Molar enthalpy of transition or fusion; conditions: Crystal; DSC

Normal melting temperature [1]: 80.8 ± 1.6 °C
Molar enthalpy of transition or fusion [2]: 4.61 ± 0.12 kcal/mol
Structure (SMILES): CC1=C(O)C(=O)C(C)O1 (configuration not stated) [4-hydroxy-2,5-dimethyl-3(2H)-furanone]
